Laboratory results published in patent US20070099938A1, “Antistress drug and medical use thereof” (ONO PHARMACEUTICAL CO., LTD., priority 2003, published 2007).

Target: T1, MBR (Rattus norvegicus, UniProt P16257)
T1 construct: from tissue; host or cells: whole brain without cerebellum of male Wistar rats, crude membrane pellet
Assay: Receptor binding experiment ([3H]PK11195 competition, rat brain membrane preparation)
Conditions: [3H]PK11195 0.5 or 1 nmol/L, Cheng and Prusoff from KD and IC50
Protocol: The affinity of the compounds in the present invention to MBR was determined using rat brain membrane preparation. In addition, the measurement in the present invention was improved the accuracy of measurement and the sensitivity of measurement for evaluating the compounds in the present invention as follows. After male Wister rats were decapitated to extirpate the whole brain and cerebellums were removed. They were homogenized in ice-cold 50 mmol/L Tris-HCL buffer solution (pH 7.4), centrifuged and the obtained pellets were washed. The pellets resuspended and adjusted to about 1 mg/mL were used as rat brain membrane preparations for binding assay. The binding assay were experimented using [^3H]PK11195 as a MBR selective ligand. […]
To determine the amount of total binding in saturation binding experiment, membrane preparations, various concentrations of [^3H]PK11195, final concentration: 0.5 vol % dimethylsulfoxide (DMSO) and 50 mmol/L Tris-HCL buffer solution (pH 7.4) were mixed (total volume 200 μL) and were incubated for 1 hour at room temperature. […] The filter was dried and then the radioactivity on the filter was measured by liquid scintillation counter. The data obtained by the binding experiments were Scatchard analyzed using analysis software, KELL (Ver.6, BIOSOFT) and the dissociation constant (KD value) was determined. […]

Ki | Structure (SMILES)
360 nM | CC(=O)Nc1cccc(-c2ccnc(NC(=O)c3ccccc3)n2)c1 [Example 3(46), N-{4-[3-(acetylamino)phenyl]pyrimidin-2-yl}benzamide]
10 nM | O=S(=O)(Nc1nccc(-c2cc(OC(F)F)ccc2OC(F)F)n1)c1ccccc1 [Example 5(2), N-{4-[2,5-bis(difluoromethoxy)phenyl]pyrimidin-2-yl}benzenesulfonamide]
